How the values were obtained:
[1] = system: Trichomonas vaginalis; assay: Viable cell count under microscope (Example 10); type: cell-based; conditions: for Trichomonas vaginalis cell count in comparison to the control group: xylitol 0.5%, 3.0%, 5.0%
Procedure: Trichomonas vaginalis was obtained from the American Type Culture Collection (ATCC #30001). The culture medium was LYI-S-2 medium (ATCC medium 2154). A sterile LYI-S-2 medium was prepared according to the manufacturer's instructions, and the pH of this medium was adjusted to pH 6.0 using 1 N HCl. Xylitol was then dissolved into the LYI-S-2 medium at concentrations of 0.5%, 3.0%, and 5.0% (wtvol). 0.9 milliliters of xylitol and culture medium (as control) were also added into different culture tubes. Thereafter, 0.1 milliliter of Trichomonas vaginalis culture suspension (concentration of 1×10^6/milliliter) was added to each of the culture tubes, and then incubated at 35° C. on a 15 degree horizontal slant. The viable Trichomonas vaginalis cells in each tube were counted under a microscope after 24 and 48 hours. The above procedure was repeated four times for each concentration of xylitol and the control.

[2] = system: Gardnerella vaginalis; assay: Average plate count after 24 hours with gel compositions and solutions (Example 8); type: cell-based; conditions: 1 ml sample + 0.8 ml growth medium + 0.2 ml suspension, 24 hours at 37° C., triplicate, compositions per Table 8
Procedure: Samples 1-2 were prepared by dissolving the KELCOGEL® (0.07 grams) and/or xylitol (0.44 grams) into 10 milliliters of water heated to between 70° C. to 80° C. Samples 3-4 and 6 were formed by first autoclaving a gallic acid stock solution (0.75 grams of gallic acid/20 mL water), autoclaving, and then adding 200 microliters of sterile gallic acid (0.0075 grams) to each sterile solution. Sample 5 was formed by dissolving 0.44 grams of xylitol in deionized water, followed by autoclaving. Sample 7 was formed by dissolving 0.44 grams of xylitol in sterilized growth medium for Gardnerella vaginalis and then filtering. The amount of xylitol was selected to yield isotonic solutions. After vortexing the solutions to help dissolve the solids, they were allowed to cool to room temperature.
Upon formation, 1 milliliter of each control or sample solution was then added into a culture tube, followed by the addition of 0.8 milliliters of growth medium for Gardnerella vaginalis. To this mixture was added 0.2 milliliters of a Gardnerella vaginalis suspension (at a concentration of around 10^6 cfu/ml; diluted from 10^8 cfu/ml stock). The tubes were incubated in culture tubes at 37° C. After 24 and 48 hours, the optical density was measured for each sample at wavelengths of 450 and 595 nanometers. The 24-hr solution samples were then diluted at 0.001× and 0.0001×. 3 milliliters of growth medium were then added into the 24-hour composition samples, followed by 1 hour of shaking at 30° C. Solution was then taken from well-shaken test tubes and diluted at 0.001× and 0.0001×. “WASP” (Whitely Automatic Spiral Plate) spiral plating equipment from Don Whitely Scientific Limited was used to plate 100 microliters of the above solutions onto agar plates. The plates were incubated overnight at 35° C. The number of colonies on each plate was counted using ProtoCol® software from Synbiosis of Frederick, Md. All samples were plated in triplicate.

[3] = pH and gelation properties of acid-modified KELCOGEL/xylitol solutions (Example 5); type: physicochemical; conditions: 4.4% (wt/vol) xylitol in 0.7% KELCOGEL solutions
Procedure: Solutions were formed from xylitol and a gellan gum obtained from CP Kelco U.S., Inc. of Chicago, Ill. under the name KELCOGEL®. The solutions contained 0.7% (wt/vol) of the KELCOGEL® gum and 4.4% (wt/vol) xylitol, and were formed by dissolving 0.07 grams of the polymer powder and 0.44 grams of xylitol into 10 milliliters of water at a temperature between 70° C. to 80° C. After vortexing the solutions to help dissolve the solids, they were allowed to cool to room temperature. After cooling, the pH of the solutions was adjusted using varying amounts of either acetic acid or lactic acid.

[4] = system: Gardnerella vaginalis; assay: Plate count after 6 hours treatment (Example 3); type: cell-based; conditions: for Plate Count, G. Vaginalis: 6 hours at 37° C., n = 4
Procedure: (§1) Test compounds were dissolved in culture media to form a suspension. Control or xylitol solutions (0.9 milliliters) were filtered and added into culture tubes. To these solutions, 0.1 milliliter of the Gardnerella vaginalis or Lactobacillus acidophilus suspension was then added at a concentration of around 10^6 cfu/milliliter. The culture tubes were incubated at 37° C. for 6 hours. The samples in the culture tubes were then diluted at 1, 10 and 100 times, and 100 microliters of each dilution was plated onto agar plates with WASP (Whitely Automatic Spiral Plate) spiral plating equipment from Don Whitely Scientific Limited, USA. The plates were incubated overnight at 35° C., and the numbers of colonies were counted on each plate by either ProtoCol® from Synbiosis, Frederick, Md., USA Whitely Scientific Limited, USA or by hand count. The results are shown below in Tables 2-3 and in FIG. 2,

[5] = system: Lactobacillus acidophilus; assay: Plate count after 6 hours treatment (Example 3); type: cell-based; conditions: for Plate Count, L. acidophilus: 6 hours at 37° C., n = 4
Procedure: as §1

[6] = system: Candida albicans; assay: Viable cell count after 24 hours (Example 12); type: cell-based; conditions: xylitol 1%, 2%, 3%, 4%, 5.0% (wt/vol) in YM medium pH 6.0, after 24 hours (FIG. 11)
Procedure: A YM culture medium was prepared according to the manufacturer's instructions, and the pH of this medium was adjusted to pH 6.0 using 1N HCl. Xylitol was then dissolved into the YM medium at concentrations of 1%, 2%, 3%, 4%, and 5.0% (wt/vol). 0.9 milliliters of the culture medium were also added into a different culture tube as a control. Thereafter, 0.1 milliliter of Candida albicans culture suspension (concentration of 1×10^6/milliliter) was added to each of the culture tubes, and then incubated at 37° C. The viable Candida albicans cells in each tube were counted under a microscope after 24 hours. The above procedure was repeated four times for each concentration and the control.

[7] = system: Gardnerella vaginalis; assay: Optical density after 24 hours (Example 13); type: cell-based; conditions: 1.0% (wt/vol) in growth medium pH 6.0, after 24 hours (FIG. 12)
Procedure: A growth medium for Gardnerella vaginalis was prepared according to the manufacturer's instructions, and the pH of this medium was adjusted to pH 6.0 using 1N HCl. D-ribose (99%, Calbiochem), D-arabinose (98%, Alfa Aesar), D-xylose (Aldrich), D-lyxose (99%, Avovado), D-arabitol (97%, Alfa Aesar), adonitol (99%, Alfa Aesar), xylitol (99%, Alfa Aesar), xylitol (98%, Danisco), and xylitol (98%, Aldrich) were then dissolved into the growth medium at a concentration of 1.0% (wt/vol). 0.9 milliliters of the culture medium was also added into a different culture tube as a control. Thereafter, 0.1 milliliter of Garnerella vaginalis culture suspension (concentration of 1×10^6/milliliter) was added to each of the culture tubes, and then incubated overnight at 37° C., and the optical density was then measured after 24 hours at a wavelength of 595 nanometers. This was accomplished by pipetting 100 microliters of the control or sample solutions into 96-well microplates, and then using a ThermoMax Microplate Reader from Molecular Devices of Sunnyvale, Calif. to obtain the optical density readings. The results are depicted in FIG. 12.

[8] = system: Gardnerella vaginalis; assay: Optical density of culture tubes (Example 2); type: cell-based; conditions: 2, 4, 6 and 24 hours at 37° C., n=4
Procedure: (§2) Test compounds were dissolved in culture media to form a suspension. Control or xylitol solutions (0.9 milliliters) were filtered and added into culture tubes, and to this was added 0.1 milliliter of either the Gardnerella vaginalis or Lactobacillus acidophilus suspension at a concentration of around 10^6 cfu/milliliter. The culture tubes were then incubated overnight at 37° C., whereafter the optical density was measured at 2, 4, 6 and 24 hours by pipetting 100 microliters of the control or sample solutions into 96-well microplates, and then using a ThermoMax Microplate Reader (Molecular Devices of Sunnyvale, Calif.) to obtain the optical density readings at 590 or 600 nm wavelengths. […] The inhibition effect remained evident throughout the 24-hour experimental period.

[9] = system: Lactobacillus acidophilus; assay: Optical density of culture tubes (Example 2); type: cell-based; conditions: 2, 4, 6 and 24 hours at 37° C., n=4
Procedure: as §2

[10] = system: Lactobacillus acidophilus; assay: Zone of inhibition on agar plates (Examples 1 and 4); type: cell-based; conditions: 10%, tested as in Example 1
Procedure: Lactobacillus acidophilus was obtained from the American Type Culture Collection (ATCC #4356). The culture medium was Lactobacilli MRS broth (ATCC medium 416).
(§3) A microorganism culture of 10^5cfu (colony forming units)/ml in a 1× phosphate buffered saline (PBS) solution (diluted from 10× PBS LIQUID CONCENTRATE from VWR Cat. No. EM-6507] was used. One milliliter of the solution was plated on proper agar plates, depending on which microorganism was being tested. The agar plates were incubated at 35° C. for 4 hours. Three 4-millimeter diameter wells were then punched in each agar plate. A test sample of 100 microliters of 5% xylitol in sterilized 2-N-morpholino ethane sulfonic buffer (0.1 M 2-[morpholino]-ethanesulfonic acid, 0.9% NaCl, pH 4.7, prepared from BupH™ MES Buffer Saline Pack from Cat. No. 28390, Pierce Biotechnology, Inc., Rockford, Ill.) was added to one well of each plate. Into each of the other two wells were added MES buffer and 1% benzyl quats (diluted from BARDAC® 205M, from Lonza Inc., Fair Lawn, N.J.) as negative and positive controls, respectively. The plates were incubated overnight at 35° C.
The following day, the “zone of inhibition” for each sample was then measured for Gardnerella vaginalis and Lactobacillus acidophilus activity. The “zone of inhibition” is a circular zone formed around the agar plate in which the growth of the microorganism is inhibited. […]

[11] = system: Gardnerella vaginalis; assay: as above; type: cell-based; conditions: 10%, tested as in Example 1
Procedure: Gardnerella vaginalis was obtained from the American Type Culture Collection (ATCC #14018). The culture medium was Casman's medium base (BD 229010) with 5% rabbit blood (ATCC medium 70).
as §3, with “A test sample of 100 microliters of 5% xylitol in sterilized 2-N-morpholino ethane sulfonic buffer (0.1 M 2-[morpholino]-ethanesulfonic acid, 0.9% NaCl, pH 4.7, prepared from BupH™ MES Buffer Saline Pack from Cat.” left out
The following day, the “zone of inhibition” for each sample was then measured for Gardnerella vaginalis and Lactobacillus acidophilus activity. The “zone of inhibition” is a circular zone formed around the agar plate in which the growth of the microorganism is inhibited. Absent treatment with an effective antimicrobial agent, the bacterial cells would normally produce an opaque lawn of growth. However, when growth is inhibited, a clear zone is observed. […]

OC[C@@H](O)[C@H](O)[C@@H](O)CO [xylitol, D-xylitol]
live Trichomonas vaginalis cells ([1]; 3% xylitol, after 48 hours): No live
live Trichomonas vaginalis cells ([1]; 5% xylitol, after 48 hours): No live
Trichomonas vaginalis cell count in comparison to the control group ([1]; after 24 hours, pH 6.0, 35° C. (FIG. 8)): significantly reduced
Trichomonas vaginalis cell count in comparison to the control group ([1]; after 48 hours, pH 6.0, 35° C. (FIG. 9)): even more significant inhibitory effect
Average Plate Count, Gardnerella vaginalis [2]: significant inhibition
Average Plate Count, Gardnerella vaginalis ([2]; listed as Xylitol): 1.56 × 10^4
effect on gelation ability of the polymer [3]: did not appear to negatively impact
Plate Count, G. Vaginalis ([4]; 1% xylitol): *1.24E+05
Plate Count, G. Vaginalis ([4]; 2% xylitol): *1.64E+03
Plate Count, G. Vaginalis ([4]; 3% xylitol): *4.63E+02
Plate Count, G. Vaginalis ([4]; 4% xylitol): *1.03E+02
Plate Count, G. Vaginalis ([4]; 5% xylitol): *1.98E+01
inhibition of Gardnerella vaginalis growth compared to the control group ([4]; all five concentrations (1-5% xylitol), 6 hours): significant inhibition
inhibition of the growth of Lactobacillus acidophilus ([5]; 1% and 5% xylitol, 6 hours): did not exhibit any significant inhibition
Plate Count, L. acidophilus ([5]; 1% xylitol): 3.77 ± 0.49 E+05
Plate Count, L. acidophilus ([5]; 5% xylitol): 3.97 ± 0.36 E+05
Candida albicans cell count in comparison to the control group [6]: significantly reduced
Gardnerella vaginalis cell count in comparison to the control group (optical density 595 nanometers) [7]: significantly reduced
inhibition of growth of Gardnerella vaginalis (optical density, FIG. 3) [8]: significant inhibition
inhibition of growth of Lactobacillus acidophilus (optical density, FIG. 4) [9]: did not exhibit any significant inhibition

O=C[C@H](O)[C@H](O)[C@H](O)CO [D-ribose]
Gardnerella vaginalis cell count in comparison to the control group (optical density 595 nanometers) [7]: significantly reduced

OC[C@@H](O)[C@H](O)[C@@H](O)CO [Xylitol in growth media, xylitol]
Average Plate Count, Gardnerella vaginalis [2]: 2.40 × 10^4

OC[C@@H](O)[C@@H](O)[C@H](O)[C@@H](O)CO [sorbitol]
zone of inhibition, Lactobacillus acidophilus [10]: 0 mm
zone of inhibition, Gardnerella vaginalis [11]: 0 mm

O=C[C@H](O)[C@@H](O)[C@H](O)[C@H](O)CO [glucose]
zone of inhibition, Lactobacillus acidophilus [10]: 0 mm
zone of inhibition, Gardnerella vaginalis [11]: 0 mm

O=C(O)c1cc(O)c(O)c(O)c1 [Gallic acid, trihydroxybenzoic acid]
Average Plate Count, Gardnerella vaginalis [2]: 3.43 × 10^4
